Measurements published in patent US8257734B2, “PQS and its conjugates as adjuvants and their uses in pharmaceutical compositions” (Helmhotlz-Zentrum Fuer Infektions-Forschung GmbH, priority 2005, dated 2012).
Entries after “also recorded” stand apart in the source; their conditions may differ.

Experiments:
β-gal-specific IgG = assay: β-gal-specific serum IgG ELISA after immunization with β-gal plus adjuvant; assay type: in vivo, BALB/c (H-2d) mice; conditions: 30 μg β-gal + 10 μg adjuvant, vs β-gal alone
Description: Experimental protocol: six-eight weeks-old female BALB/c (H-2d) mice were purchased from Harlan Winkelmann GmbH (Borchen, Germany) and treated in accordance with local and European Community guidelines. Groups of 5 mice each were immunized on day 1, 14 and 28 with 30 μg of β-gal (Boehringer, Mannheim, Germany), alone or as an admixture with 10 μg PQS-PEG or with 10 μg PQS (structure of said compounds are shown in FIG. 1). For intranasal (i.n.) immunization, 10 μl were applied to each naris, whereas for the s.c. injection β-gal with or without c-PQS-PEG or PQS, respectively, was resuspended in a volume of 20 μl PBS per animal. Serum samples were collected at day 38 after immunization and stored at −20° C. prior to determination of β-gal-specific antibodies. 96-well Nunc-Immuno MaxiSorp assay plates (Nunc, Roskilde, Denmark) were coated with 100 μl of β-gal (Boehringer, Mannheim, Germany) at 5 μg/ml in 0.05 M carbonate buffer (pH 8.2) per well. Serial two-fold dilutions of sera in PBS with 1% BSA and 0.05% Tween 20 were added (100 μl/well), and plates incubated for 16 h at 37° C. After washing, biotinylated γ-chain-specific goat anti-mouse IgG (Sigma Chemie, Deisenhofen, Germany) was added, and plates were incubated for an additional 1 h at 37° C. After four washes, 100 μl of peroxidase-conjugated streptavidin (Pharmingen) was added to cells and plates incubated at 37° C. for 30 min.

β-gal-specific IgA = β-gal-specific IgA in lung and vaginal lavages after i.n. immunization; assay type: in vivo, BALB/c (H-2d) mice; conditions: day 38, vs β-gal alone
Description: Experimental protocol: at day 38, mice were sacrificed and the final sampling was performed. Vaginal and lung lavages were obtained by flushing the organs with 1 ml of PBS supplemented with 50 mM EDTA, 0.1% BSA, and 10 mM PMSF. Lavages were then centrifuged to remove debris (10 min at 3000×g), and supernatant fluids were stored at −20° C. To determine the concentration of total IgA present in the lung and vaginal lavages, serial dilutions of the corresponding samples were incubated in microtiter plates that were previously coated with goat anti-mouse IgA (Sigma Chemie), as capture antibodies (100 μl/well). Serial dilutions of purified mouse IgA (Sigma Chemie) were used to generate a standard curve.

spleen cells = assay: [3H]thymidine proliferation of spleen cells from vaccinated mice restimulated in vitro with β-gal; assay type: in vivo, BALB/c (H-2d) mice; conditions: day 38, vs β-gal alone
Description: Experimental protocol: Spleens were removed and pooled for analysis of cellular immune responses. […] Spleen cell suspensions were adjusted to 5×10^6 cells/ml in complete medium, cells were seeded with 100 μl per well in a flat-bottomed 96-well microtiter plate (Nunc) and plates were incubated for 4 days in the presence of different concentrations of soluble β-gal. That is, T cell mediated immune responses were investigated at day 38 by measuring the proliferation after in vitro restimulation with β-Gal of cells which have been recovered from spleens before. […] Each concentration was tested in quadruplicate. During the final 18 h of culture, 1 μCi of [3H]thymidine (Amersham International, Freiburg, Germany) was added to each well. […] The results are expressed as the arithmetic mean of [^3H]thymidine uptake in cpm.
Thirty eight days following vaccination, spleens cells were purified, re-stimulated in vitro in the presence of various amounts of β-galactosidase and their proliferative capacity was estimated by measuring the incorporation of [3H]thymidine into their DNA using a β-scintillation counter.

[1] = tested on: β-gal antigen-specific IgG1; assay: Isotyp ELISA of β-gal-specific IgG subclasses in sera of vaccinated mice; assay type: in vivo
Description: Isotyp ELISA: 96-well Nunc-Immuno MaxiSorp assay plates (Nunc, Roskilde, Denmark) were coated with 100 μl of β-gal (Boehringer, Mannheim, Germany) at 5 μg/ml in 0.05 M carbonate buffer (pH 9.6) per well. Serial two-fold dilutions of sera or lavages in PBS with 1% BSA and 0.05% Tween 20 were added (100 μl/well), and plates incubated for 2 h at 37° C. After washing, biotin-conjugated rat anti-mouse IgG1 or IgG2a (Pharmingen, Hamburg, Germany) were added to determine IgG subclasses. Plates were incubated for an additional 1 h at 37° C. After four washes, 100 μl of peroxidase-conjugated streptavidin (Pharmingen) was added to cells and plates incubated at 37° C. for 30 min. […] To determine the concentration of IgG subclasses in serum, standard curves were obtained by coating the wells with an isotype-specific goat anti-mouse IgG, and then by incubating with purified mouse IgG1 or IgG2 antibodies (Dianova, Hamburg, Germany).

[2] = tested on: IFN-γ, IL-2, IL-4, IL-5, and TNFα; assay: Cytometric Bead Array of cytokines in supernatants of in vitro re-stimulated spleen cells; assay type: in vivo, mice; conditions: vs β-Gal without additional adjuvant
Description: Experimental protocol: Spleens from vaccinated mice were removed and pooled for analysis of cellular immune responses. The protocol for vaccination was identical to the protocol described in Example 2. Cells were grown in RPMI 1640 supplemented with 10% fetal calf serum, 100 U/ml of penicillin, 50 μg/ml of streptomycin, 5×10^−5 M 2-mercaptoethanol and 1 mM L-glutamine (GIBCO BRL, Karlsruhe, Germany) and maintained at 37° C. in a humidified 5% CO2 atmosphere. Spleen cell suspensions were adjusted to 5×10^6 cells/ml in complete medium, cells were seeded with 100 μl per well in a flat-bottomed 96-well microtiter plate (Nunc) and plates were incubated for 4 days in the presence of different concentrations of soluble β-gal.
To characterize the type of Th response stimulated following immunization, the content of IFN-γ, IL-2, IL-4, IL-5, and TNFα was measured in supernatants from in vitro re-stimulated spleen cells (FIG. 6A for s.c. immunization and FIG. 6B for i.n. immunization) by the Cytometric Bead Array. Culture supernatants from proliferating cells were collected on days 2 and 4, and stored at −70° C. […] The probes were analyzed subsequently by flow cytometry as described in the protocol of BD.

[3] = tested on: splenic IFNγ, IL-2 and IL-4 producing cells; assay: ELISPOT of cytokine producing spleen cells from vaccinated mice; assay type: in vivo; conditions: for splenic IL-2 producing cells / splenic IL-4 producing cells: restimulation with β-Gal protein
Description: Experimental protocol: Spleens from vaccinated mice were removed and pooled for analysis of cellular immune responses. […] Spleen cell suspensions were adjusted to 5×10^6 cells/ml in complete medium, cells were seeded with 100 μl per well in a flat-bottomed 96-well microtiter plate (Nunc) and plates were incubated for 4 days in the presence of different concentrations of soluble β-gal.
For coating ELISPOT plates, said plates were incubated with 100 μl/well of purified capture antibody (10 μg/ml in coating buffer) at 4° C. overnight. […] The activated cells were seeded at 100 μl per well and incubate at 37° C., in a 5% CO2 humidified incubator for 24 hours or 48 h hours. After 5× washing steps with washing buffer and 1× step with distilled water, 100 μl/well of the biotinylated detection antibody with a concentration of 1 μg/ml in Assay Diluent was added and incubated at room temperature for 2 hrs. After further washing steps 100 μl/well of the AV-HRP at 1/1000 dilution in Assay Diluent was added and incubated at room temperature for 30 minutes. After further washing steps 100 μl/well of AEC Substrate Solution was added and developed at room temperature for 10-60 minutes until visible spots appeared. After washing steps with (3×) with 200 μl/well distilled water, the plates were air-dried and analyzed by counting the spots by an ELISPOT reader. Each concentration was tested in triplicates.

P815 target cells = assay: Cr51 release cytotoxicity assay with effector cells of immunized mice; assay type: in vivo; conditions: mice immunized with β-gal/PQS subcutaneously; FIG. 8A; vs non-immunized mice
Description: This system is based on the measurement of the Cr51 release of target cells due to specific lysis. In particular, with the amount of radioactivity detectable in the supernatant, the specific lysis can be calculated.
Prior the Cytotoxicity Assay, P815 target cells were split and resuspended and adjusted to 2×10E6 cells/300 μl DMEM. The P815 cells were incubated with an MHC class I β-gal specific peptide for 1.5 h, while slightly agitating the cells every 15 min to improve binding between the peptide and the MHC class I molecule. After washing the cells, cells were resuspended in 150 μl medium without FCS and cultured for 2 h in the presence of 100 μci 51Chrom. Every 30 min, the cell suspension was agitated slightly. Subsequently, cells were washed twice in DMEM plus 10% FCS to remove unbound 51Cr. The cells were adjusted to […]. The effector cells were diluted serially (1×10E6, 0.5×10E6, 0.25×10E6, and 0.125×10E6). 50 μl of the murine target cells (10000 cells) were added to the effector cells, thus, the ratio of effector cells/target cells is 100:1, 50:1, 25:1, and 12.5:1, respectively. […] 25 or 30 μl, supernatant was taken from each of the wells and radioactivity according to standard practice determined. The specific lysis was calculated taking spontaneous lysis and maximal lysis into account.

[4] = tested on: spleenocytes stimulated with ConA; conditions: cited from earlier work
[5] = tested on: human peripheral blood mononuclear cells; conditions: stimulated with the lectin ConA; cited from earlier work
IL-2 = conditions: cited from earlier work
TNF-alpha = conditions: cited from earlier work

## CCCCCCCC1=Nc2ccccc2C(=O)C1O (centres unmarked) [PQS, 2-heptyl-3-hydroxy-4-quinolone]
β-gal-specific IgG; i.n. immunization day 1, 14, 28, sera day 38
  β-gal specific IgG titer in sera: increased expression; also recorded: remarkably increased
β-gal-specific IgG; s.c. (parenteral) immunization day 1, 14, 28
  β-gal specific IgG titer in sera: remarkably increased
β-gal-specific IgA
  β-gal-specific IgA in lung lavage: slight increase
  β-gal-specific IgA in vaginal lavage: slight increase
Spleen cells; i.n. immunization
  spleen cell proliferation ([3H]thymidine uptake) after β-gal restimulation: efficient adjuvant; also recorded: efficient proliferative response at low amounts of antigen; also recorded: statistically significant increment
Spleen cells; s.c. immunization
  spleen cell proliferation ([3H]thymidine uptake) after β-gal restimulation: efficient adjuvant; also recorded: further increase in proliferation; also recorded: statistically significant increment
[1]; i.n. immunization
  antigen-specific antibody response: strong antigen-specific antibody response
[1]; intranasal administration, FIG. 5B
  antigen specific antibodies of the IgG1 subtype in sera: strongly increased
[1]; subcutaneous administration, FIG. 5A
  expression of the IgG1 isotype in sera: strongly increased
[2]; i.n. route
  levels of IL-5: significantly higher
[2]; s.c. route
  levels of IL-5: significantly higher
[3]; i.n. route
  splenic IL-2 producing cells: strong expression
  splenic IL-4 producing cells: strong expression
[3]; i.n. vaccination, compared with s.c. vaccination
  amounts of IFNγ expressing cells: lower to the level determined after s.c. vaccination
[3]; intranasal immunization (FIG. 7B)
  expression of Th1 and Th2 cytokines after restimulation of spleen cells: increased expression
[3]; parenteral (s.c.) vaccination, restimulation with MHC class I-restricted β-Gal peptide (CD8 epitope), FIG. 7A
  number of splenic IFNγ producing cells: increment
[3]; s.c. route
  splenic IL-2 producing cells: strong expression
  splenic IL-4 producing cells: strong expression
[3]; subcutaneous immunization (FIG. 7A)
  expression of Th1 and Th2 cytokines after restimulation of spleen cells: increased expression
P815 target cells
  specific lysis of peptide-pulsed target cells by β-gal restimulated CD8+ T-cells: demonstrates the cytotoxic capacity
[4]
  proliferation of spleenocytes: inhibiting activity
[5]
  proliferation of human peripheral blood mononuclear cells: proliferation inhibiting activity
IL-2; at low doses, stimulated with ConA
  IL-2 release from PMCs: no effect
IL-2
  IL-2 secretion: inhibited
TNF-alpha; at high concentrations
  TNF-alpha production: enhances
TNF-alpha; at low doses, stimulated with LPS
  TNF-alpha release from PMCs: no effect
